Test results taken from patent publication US4086221A, “Polypeptides and process for producing the same” (Toyo Jozo Kabushiki Kaisha, priority 1975, dated 1978).
Where a SMILES comes first, the peptide text is derived from it. Bridges are numbered along the chain shown (N, C = ends). [ ]: non-standard residue; d: D form. Asu = N[C@@H](CCCCCC(=O)O)C(=O)O

System: Male rats
Assay: Assay method for serum calcium reducing activity (potency against Research Standard B)
Assay type: in vivo, rat
Details: intravenous injection 0.2 ml, serum calcium 1 hour after injection, versus Research Standard B
Description: The assay method for serum calcium reducing activity, the carrier and developing system for thin layer chromatography and conditions for amino acid analysis are as follows:
Sample is diluted adequately with 0.1 N sodium acetate - 0.1% albumin solution. Male rats are subjected individually to intravenous injection with 0.2 ml. of the respective diluted solutions. After 1 hour, all the rats are killed to obtain their respective blood, and serum calcium value of each blood sample is determined by atomic absorption spectrophotomery. On the other hand, Research Standard B, which is an extract obtained from the thyroid gland of the hog, is diluted so as to give dilutions of 2.5, 5, 10 and 20 MRC mU/0.2 ml. respectively. Male rats are subjected to intravenous injection with 0.2 ml. of the respective diluted solutions. Following the same procedure as above, the serum calcium value of the rats is determined one hour after injection. From the potency of the corresponding Research Standard, the potency of the calcitonin in the sample is determined.

Compound: CC(C)C[C@H](NC(=O)[C@H](CCCCN)NC(=O)CNC(=O)[C@H](CC(C)C)NC(=O)[C@@H](NC(=O)[C@@H]1CCCCCC(=O)N[C@@H](CO)C(=O)N[C@@H](CC(N)=O)C(=O)N[C@@H](CC(C)C)C(=O)N[C@@H](CO)C(=O)N[C@@H]([C@@H](C)O)C(=O)N1)C(C)C)C(=O)N[C@@H](CO)C(=O)N[C@@H](CCC(N)=O)C(=O)N[C@@H](CCC(=O)O)C(=O)N[C@@H](CC(C)C)C(=O)N[C@@H](Cc1c[nH]cn1)C(=O)N[C@@H](CCCCN)C(=O)N[C@@H](CC(C)C)C(=O)N[C@@H](CCC(N)=O)C(=O)N[C@H](C(=O)N[C@@H](Cc1ccc(O)cc1)C(=O)N1CCC[C@H]1C(=O)N[C@@H](CCCNC(=N)N)C(=O)N[C@H](C(=O)N[C@@H](CC(=O)O)C(=O)N[C@H](C(=O)NCC(=O)N[C@@H](C)C(=O)NCC(=O)N[C@H](C(=O)N1CCC[C@H]1C(N)=O)[C@@H](C)O)C(C)C)[C@@H](C)O)[C@@H](C)O [Example 1] (SNLST[Asu]VLGKLSQELHKLQTYPRTDVGAGTP-NH2; lactam N-6)
- potency of the purified product (serum calcium reducing activity): 3450 MRC U/mg.
